Read-outs that look alike come from different tables or passages of the source.
Legend:
[1] = tested on: luciferin/luciferase luminescent reactions; conditions: for Max RLU / Max Time: 1 mM in ATP luminescent reagent; for Max RLU%: relative to the reaction system without pyrophosphoric acid (no PPi)
Protocol: To a 5 ml aliquot of this reagent, pyrophosphoric acid (Wako Purechemical Industries, Ltd.) was added to give a final concentration of 1 mM. Subsequently, ATP standard reagent (ATP concentration = 1 x 10^-12 M) included in the kit was dispensed into a microtiter plate at 100 µl/well. […] The same operations were performed on ATP luminescent reagent without pyrophosphoric acid. Further, ATP luminescent reagent to which potassium pyrophosphate or sodium pyrophosphate was added at a final concentration of 1 mM instead of pyrophosphoric acid was also prepared, and the above-described operations were performed.

[2] = target: T1, luciferase standard enzyme (Photinus pyralis, UniProt P08659); conditions: 2 mM; for Max RLU / Max Time: with 2 mM sodium diethyldithiocarbamate, 10% glycerol; for Max RLU%: relative to the system without pyrophosphoric acid (no PPi)
Protocol: A "luciferase luminescent reagent" containing 20 mM tricine, 1.07 mM (MgCO3)4Mg(OH)2.5H2O, 2.67 mM magnesium sulfate, 0.1 mM EDTA, 470 µM luciferin and 530 µM adenosine triphosphate (ATP), pH 7.8 was prepared in accordance with the formulation described in the instructions included in "PicaGene Luminescent Kit" (Toyo Ink Manufacturing Co., Ltd.; product No. PGL100), except that 270 µM CoA and 33.3 mM DTT (thiol reagents) mentioned in the instructions were not added. […] In both reagents thus prepared, glycerol (final concentration: 10%) was allowed to co-exist in order to promote stabilization of luciferase enzyme.
A luciferase enzyme solution (100 ng/ml) was prepared by diluting "luciferase standard enzyme (10 µg/ml)" included in "PicaGene Luminescent Kit" (Toyo Ink Manufacturing Co., Ltd.; product No. PGL100) with "PicaGene Cell Lysis Reagent LUC" (Toyo Ink Manufacturing Co., Ltd.; product No. PGC50). 10 µl of this luciferase enzyme solution was taken into a cuvette of a luminometer (Berthold, LB9506). First, 100 µl of the "luciferase luminescent reagent" prepared above was added to the enzyme solution. Immediately after the addition, the resulting mixed solution was loaded onto the luminometer, and the quantity of light emitted (RLU/sec) was measured for the initial 200 seconds at intervals of 25 seconds. Then, the quantity of light emitted was measured in the same manner using the "luciferase luminescent reagent (+improvement)".

[3] = target: T1, luciferase standard enzyme; conditions: 1.5mM PPiK; relative to w/o pyrophosphoric acid
Protocol: A "luciferase luminescent reagent" containing 20 mM tricine, 1.07 mM (MgCO3)4Mg(OH)2.5H2O, 2.67 mM magnesium sulfate, 0.1 mM EDTA, 33.3 mM DTT, 470 µM luciferin, 270 µM CoA and 530 µM adenosine triphosphate (ATP), pH 7.8 was prepared in accordance with the formulation described in the instructions included in "PicaGene Luminescent Kit" (Toyo Ink Manufacturing Co., Ltd.; product No. PGL100). […] Further, glycerol and DTT were allowed to co-exist in each of the above luminescent reagents at final concentrations of 10% and 1 mM, respectively, in order to promote the stabilization of luciferase enzyme.
A luciferase enzyme solution (100 ng/ml) was prepared by diluting "luciferase standard enzyme (10 µg/ml)" included in "PicaGene Luminescent Kit" (Toyo Ink Manufacturing Co., Ltd.; product No. PGL100) with "PicaGene Cell Lysis Reagent LUC" (Toyo Ink Manufacturing Co., Ltd.; product No. PGC50). 10 µl of this luciferase enzyme solution was dispensed into each well of a microtiter plate. Subsequently, 100 µl of the above-described luminescent reagent was added to the enzyme solution in each well. […] Since luciferin/luciferase luminescent reactions are greatly affected by temperature, all operations and measurements with a luminometer were performed in a thermostatic chamber set at 23°C.
Then, the above-described operations were repeated. […]

luciferase enzyme = assay: ATP assay, time course of light emission with ATP luminescent reagent (Example 3, microtiter plate, 23°C); type: biochemical; conditions: 2 mM, added as organic sulfur reagent
Description: Then, the above-described operations were repeated.

T1 sequence (P08659 whole entry): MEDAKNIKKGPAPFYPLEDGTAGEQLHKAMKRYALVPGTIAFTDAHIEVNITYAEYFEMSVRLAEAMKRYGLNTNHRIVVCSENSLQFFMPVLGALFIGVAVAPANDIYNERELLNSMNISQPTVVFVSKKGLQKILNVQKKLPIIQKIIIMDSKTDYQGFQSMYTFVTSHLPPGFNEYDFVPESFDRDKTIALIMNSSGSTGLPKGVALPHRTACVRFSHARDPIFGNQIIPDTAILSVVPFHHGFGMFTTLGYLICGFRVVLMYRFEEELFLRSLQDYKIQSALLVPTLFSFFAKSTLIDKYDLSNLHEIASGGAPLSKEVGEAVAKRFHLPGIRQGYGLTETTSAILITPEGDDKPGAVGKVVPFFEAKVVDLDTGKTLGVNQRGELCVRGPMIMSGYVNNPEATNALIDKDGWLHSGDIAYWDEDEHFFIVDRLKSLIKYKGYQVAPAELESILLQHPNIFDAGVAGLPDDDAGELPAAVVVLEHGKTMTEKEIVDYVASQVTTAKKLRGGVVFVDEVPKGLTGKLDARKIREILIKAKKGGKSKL

Row | Structure (SMILES) | Max RLU [1] [RLU] | Max Time [1] [min] | initial luminescence ([1]; 1 mM, relative to the initial luminescence with the ATP luminescent reagent) [%] | Max RLU% ([1]; 1 mM) [%] | time at which the quantity of light emitted reached the maximum value ([1]; after the start of the measurement) [min] | Max RLU [2] [RLU] | Max Time [2] [min] | Max RLU% [2] [%] | Max RLU% [3] [%] | effect on the stabilization of luminescent reactions (luciferase enzyme)
1 | O=P(O)(O)OP(=O)(O)O [PPi, pyrophosphoric acid] | 30874.3 | 5 | ≤ 50 | 48.9 | 5 | 67904.5 | 6 | 55.4 |  | 
2 | O=P([O-])([O-])OP(=O)([O-])[O-].[K+].[K+].[K+].[K+] [PPiK, potassium pyrophosphate] | 16800.3 | 15 |  | 26.6 |  | 31448.0 | 12 | 25.6 | 27.5 | 
3 | O=P([O-])([O-])OP(=O)([O-])[O-].[Na+].[Na+].[Na+].[Na+] [PPiNa, sodium pyrophosphate] | 15275.5 | 25 |  | 24.2 |  | 30290.8 | 12 | 24.7 |  | 
4 | CCN(CC)C(=S)[S-].[Na+] [organic sulfur reagent, sodium diethyldithiocarbamate] |  |  |  |  |  |  |  |  |  | no effect on the stabilization of luminescent reactions

From patent EP1793002A1 (priority 2004, dated 2006)
